Experimental data from patent publication US7605184B2, “Method of anesthesia” (priority 2008, dated 2009).
Where two headings read alike, the source gives them in different places.

How the values were obtained:
mice = assay: loss of righting reflex in mice; format: in vivo; conditions: four mice, closed system with Amsorb, rectal temperature 30° C. (hypothermic)
Excerpt: (§1) Clearly another significant property of an anesthetic is its ability to effect anesthesia in the first place. […] The minimum alveolar concentration of anesthetic at which 50% of subjects move in response to a noxious stimulus is designated “MAC.” In the case of 30-60 year old adult humans, the MAC values are 0.06 atm (i.e., 6%) for desflurane, 0.0115 atm (1.15%) for isoflurane and 0.0185 atm (1.85%) for sevoflurane). An alternative measurement similar to MAC that is based on the righting reflex in mice gave a value for the compound of formula (1) of 0.05 atm (5%). The value obtained in this alternative assay approximates but is usually a bit less than MAC.
In a closed system employing Amsorb® as the absorbent, four mice were anesthetized using the compound of formula (1). The righting reflex was lost at 3.22±0.54% of formula (1). The rectal temperature of the mice at the end of this experiment was 30° C. which is hypothermic for mice. Hypothermia decreases anesthetic requirement (Eger, E. I. II and Johnson, B. H.; Anesth Analg (1987) 66:974-976), and thus this experiment probably underestimated the concentration producing the loss of righting reflex.

mice and rats = assay: recovery, CNS irritation and survival after anesthesia in mice and rats; format: in vivo
[1] = degradation by wet (normal) carbon dioxide absorbents at 40° C., gas chromatography; format: physicochemical; conditions: for % Degraded per Minute: 100 mL anesthetic
Protocol: Nine milligrams of the compound of formula (1) were placed in each of three 600 ml flasks containing 100 g of soda lime and maintained at 40° C. The 40° C. temperature is chosen to mimic that generated by the exothermic reaction of carbon dioxide with absorbent in a system wherein all gases are rebreathed. Soda lime contains sodium hydroxide as well as approximately 80% calcium hydroxide. A control flask contained the compound of formula (1) but no soda lime. Samples were taken at various timepoints and analyzed by gas chromatography using a flame ionization detector. […] It will be noted that the Y-axis is on a log scale so that the depletion is quite dramatic.
The procedure was identical to that of Example 1 except that an absorbent containing only calcium hydroxide as the base was used. This absorbent is marketed under the trademark Amsorb®.
The dramatic decrease in degradation with substitution of Amsorb® for soda lime applies to other absorbents that are composed of calcium hydroxide but contain minimal or no monovalent bases, LoFloSorb® and Drägersorb® Free. The general procedure of Example 1 was repeated using these two commercially available absorbents. […] All studies were conducted at 40° C. In all cases, the absorbents were “wet” (contained approximately 15% water by weight). The data in the table were obtained using the protocol set forth above wherein 100 g of absorbent was placed in a 600 mL flask, and 100 mL of anesthetic at the indicated concentration was inserted. Each study was done in triplicate. […] Values for % degraded per minute are given as the average and standard deviation (SD).

[2] = degradation by desiccated (dry) carbon dioxide absorbents at 40° C.; format: physicochemical; conditions: for % Degr Per min: 40° C.
Protocol: Drying was accomplished by placing wet absorbent in a large flask receiving 1-1.5 L/min of oxygen (dry; no water vapor) for 4 days. The flask rested in an incubator at 50° C. The absorbent contained in the flask was weighed repeatedly (to essentially constant weight loss).
As above, all studies were conducted at 40° C. Desiccated (dry) absorbent (grams indicated) was placed in a 600 mL flask, and 100 or 200 mL of anesthetic at the indicated concentration was inserted. […] Values for % degraded per minute are given as the average and standard deviation (SD).

rats = assay: MAC in rats; format: in vivo; conditions: five rats, 37° C. (normothermic)
Excerpt: as §1
In an additional experiment, conducted at 37° C. which is normothermic, five rats were anesthetized using the compound of formula (1) and the MAC value found was 8.34±0.84%.

[3] = blood/gas partition coefficient; format: physicochemical
Excerpt: One highly desirable property of an inhaled anesthetic is that it permits rapid recovery once the administration of the anesthetic is halted. Typically, during surgical procedures, the subject is continuously administered the anesthetic, and it is helpful if the subject can recover as quickly as possible as soon as administration is stopped. The length of time required for such recovery is a function of the solubility of the anesthetic in the blood, which mimics solubility in the brain. Thus, anesthetics with very low blood/gas partition coefficients are highly desirable. The blood/gas partition coefficient for desflurane is 0.45; for sevoflurane is 0.65 and for isoflurane is even higher. The blood/gas partition coefficient for the compound of formula (1) is only 0.21, making it highly advantageous as permitting more rapid recovery than any of the currently used anesthetics.

murine models = conditions: cited from earlier work
[4] = Strum et al. 1987; cited from earlier work
[5] = currently used anesthetics; cited from earlier work
[6] = dry Amsorb 100 g, 100 mL injected
[7] = dry Drägersorb Free 25 g, 100 mL injected
[8] = dry LoFloSorb 25 g, 100 mL injected
[9] = dry LoFloSorb 50 g, 200 mL injected

FC(F)OC(C(F)(F)F)C(F)(F)F [Formula (1), CHF2—O—CH(CF3)2]
concentration at which the righting reflex was lost (mice): 3.22±0.54%
survival (mice and rats; 24 hours after anesthesia, mice and rats): All survived for 24 hours in apparent good health
time to awake after administration of the anesthetic was stopped (mice and rats; mice and rats): 2 to 3 min
irritation of the central nervous system (mice and rats; mice and rats anesthetized): In neither of these cases was there irritation of the central nervous system
degradation in flasks containing soda lime (FIG. 2) ([1]; 9 mg, 100 g soda lime, 600 ml flask, after 30 min): essentially complete degradation
percentage of compound in the flask (FIG. 3) ([1]; 100 g Amsorb (calcium hydroxide only), 30 min interval): remained constant
% Degraded per Minute ([1]; wet Amsorb 100 g): −0.05%
% Degraded per Minute ([1]; wet Drägersorb Free 100 g): 0.102%
% Degraded per Minute ([1]; wet LoFloSorb 100 g): 0.2%
% Degraded per Minute ([1]; wet Soda Lime 100 g): 25.0%
% Degr Per min ([2]; dry Amsorb 20 g, 100 mL injected): 0.7%
% Degr Per min [2, 6]: 2.7%
rate of degradation on repeated addition of anesthetic (FIG. 4) ([2]; dry Amsorb, three flasks, repeated additions): progressively decreased
% Degr Per min [2, 7]: 0.28%
% Degr Per min [2, 8]: 55.0%
% Degr Per min [2, 9]: 40.7%
MAC value (rats): 8.34±0.84%
blood/gas partition coefficient [3]: 0.21
anesthetic quality (murine models; Speers et al., J. Med. Chem. 1971): good anesthetic
side effects (murine models; murine models, Speers et al. 1971): undesirable side effects

FCOC(C(F)(F)F)C(F)(F)F [Sevoflurane, sevoflurane, reference compound]
% Degraded per Minute ([1]; wet Drägersorb Free 100 g): −0.058%
% Degr Per min [2, 6]: 5.01%
% Degr Per min [2, 7]: 0.52%
% Degr Per min [2, 8]: 38.5%
degradation in soda lime [4]: 13 % per hour
blood/gas partition coefficient [5]: 0.65

FC(F)OC(F)C(F)(F)F (centres unmarked) [Desflurane, desflurane, reference compound]
% Degr Per min ([2]; dry Amsorb 50 g, 100 mL injected): −0.1%
% Degr Per min [2, 9]: 0.5%
blood/gas partition coefficient [5]: 0.45
